Laboratory results from patent US10336707B2, “Heterocyclic derivatives modulating activity of certain protein kinases” (EUDENDRON S.R.L., priority 2014, dated 2019).

Columns and labels:
[1] = test system: Karpas 299 lymphoma cell line positive for the oncogenic fusion protein NPM-ALK; assay: Tritiated thymidine uptake cell proliferation assay, Karpas 299; assay type: cell-based; settings: Homo sapiens, KARPAS-299; percentage of inhibition of cell proliferation at 200 nM; read-out: % Inhibition Karpas 299 cells
Description: (§1) Method: Tritiated Thymidine Uptake Cell Proliferation Assay
(§2) The following procedure was used with parent untransformed BaF3 cells, BaF3 cells transformed with the oncogenic fusion protein NPM/ALK, NPM/ALK positive SUDHL-1 cells, NPM/ALK positive SUPM2, ALK-negative HL60 cells, NPM/ALK positive KARPAS-299 cells. The parent untransformed BaF3 cells or Alk-negative HL60 cells are used as controls. Cells were seeded in U-bottomed 96-well plates at 10000 cells/well in a volume of 100 μl in supplemented medium. In the case of the parent untransformed BaF3 cells, the medium was supplemented with IL-3. Serial dilutions of inhibitors were added to the appropriate wells and volumes adjusted to 200 μl. Controls were treated with the equivalent volume of vehicle, DMSO, alone. Plates were incubated at 37° C. for 72 h. 3[H]-thymidine (1 μCi/well) was added for the last 16 h of incubation. Cells were harvested on to paper filters and 3[H]-thymidine incorporation was measured using a scintillation counter (1430 MicroBeta, Wallac, Turku, Finland). The 50% inhibitory concentration (IC50) was defined as the concentration of inhibitor, expressed in nanomolar units, that gave a 50% decrease in 3[H]-thymidine uptake compared with controls.
In Table 1 are listed results for selected examples of compounds of the invention, reported as percentage of inhibition of cell proliferation at 200 nM, obtained from cellular assays in Karpas 299 lymphoma cell line positive for the oncogenic fusion protein NPM-ALK.

[2] = molecular target: T1, BaF3 cell line transfected with the oncogenic fusion protein NPM-ALK and expressing the mutation L1196M (Homo sapiens, UniProt Q9UM73, L1196M, cells depend on it); assay: Tritiated thymidine uptake cell proliferation assay, BaF3 NPM-ALK L1196M; assay type: cell-based, murine; settings: for GI50: averaged IC50 values of cell proliferation inhibition, class letters, read-out: IC50 BaF3 NPM-ALK L1196M cells; for % Inhibition BaF3 NPM-ALK L1196M cells: percentage of inhibition of cell proliferation at 200 nM
T1 construct: fused on or other part: P06748 (Nucleophosmin)
T1 sequence (Q9UM73 whole entry L1196M, the tested form may be a part): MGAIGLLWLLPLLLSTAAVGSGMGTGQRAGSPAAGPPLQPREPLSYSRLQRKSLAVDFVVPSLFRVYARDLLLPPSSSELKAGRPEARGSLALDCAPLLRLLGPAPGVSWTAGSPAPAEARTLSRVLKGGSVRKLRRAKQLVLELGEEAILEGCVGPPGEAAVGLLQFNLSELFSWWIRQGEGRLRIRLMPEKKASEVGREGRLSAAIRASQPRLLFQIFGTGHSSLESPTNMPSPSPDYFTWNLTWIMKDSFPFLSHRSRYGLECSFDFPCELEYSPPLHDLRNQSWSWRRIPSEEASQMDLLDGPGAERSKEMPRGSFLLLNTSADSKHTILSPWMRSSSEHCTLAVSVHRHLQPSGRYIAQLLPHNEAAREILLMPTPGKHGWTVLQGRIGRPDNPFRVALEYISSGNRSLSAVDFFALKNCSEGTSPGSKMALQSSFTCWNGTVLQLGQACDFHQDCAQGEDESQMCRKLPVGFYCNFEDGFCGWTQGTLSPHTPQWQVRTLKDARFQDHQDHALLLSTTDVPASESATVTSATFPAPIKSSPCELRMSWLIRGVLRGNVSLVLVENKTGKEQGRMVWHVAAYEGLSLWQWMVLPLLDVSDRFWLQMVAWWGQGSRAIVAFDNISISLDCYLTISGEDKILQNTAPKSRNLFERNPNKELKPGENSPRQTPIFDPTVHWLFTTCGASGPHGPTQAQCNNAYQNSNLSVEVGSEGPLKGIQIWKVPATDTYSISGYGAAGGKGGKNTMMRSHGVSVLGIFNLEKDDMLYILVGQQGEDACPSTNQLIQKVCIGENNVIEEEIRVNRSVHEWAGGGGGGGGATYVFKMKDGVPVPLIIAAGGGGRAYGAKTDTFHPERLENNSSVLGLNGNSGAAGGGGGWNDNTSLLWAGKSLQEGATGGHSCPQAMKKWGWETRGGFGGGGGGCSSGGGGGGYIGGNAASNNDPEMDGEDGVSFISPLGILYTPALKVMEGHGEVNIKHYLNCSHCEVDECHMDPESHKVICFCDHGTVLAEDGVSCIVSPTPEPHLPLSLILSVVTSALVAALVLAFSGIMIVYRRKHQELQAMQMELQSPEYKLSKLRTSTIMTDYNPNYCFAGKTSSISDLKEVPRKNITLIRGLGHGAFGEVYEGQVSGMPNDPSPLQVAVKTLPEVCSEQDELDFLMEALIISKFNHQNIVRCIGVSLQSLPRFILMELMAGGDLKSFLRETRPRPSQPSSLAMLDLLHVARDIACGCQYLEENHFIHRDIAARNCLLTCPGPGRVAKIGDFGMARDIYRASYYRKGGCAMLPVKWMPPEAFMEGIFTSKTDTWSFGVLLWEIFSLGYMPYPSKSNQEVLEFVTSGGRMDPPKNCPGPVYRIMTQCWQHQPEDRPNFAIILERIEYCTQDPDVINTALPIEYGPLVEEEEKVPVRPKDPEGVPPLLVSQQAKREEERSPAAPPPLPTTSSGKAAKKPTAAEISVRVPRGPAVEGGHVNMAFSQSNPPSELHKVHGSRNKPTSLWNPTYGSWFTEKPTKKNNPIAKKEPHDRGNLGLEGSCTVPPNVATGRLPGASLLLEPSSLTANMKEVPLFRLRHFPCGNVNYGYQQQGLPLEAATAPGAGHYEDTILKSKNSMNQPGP
Description: as §1, §2
In Table 2 are listed results for selected examples of compounds of the invention, reported as percentage of inhibition of cell proliferation at 200 nM, obtained from cellular assays in BaF3 cell line transfected with the oncogenic fusion protein NPM-ALK and expressing the mutation L1196M.
In Table 3 are listed averaged IC50 values of cell proliferation inhibition for selected examples of compounds of the present invention, obtained from cellular assays in BaF3 cell line transfected with the oncogenic fusion protein NPM-ALK and expressing the mutation L1196M. The letter “A” designates an IC50 value between 1 nM and 50 nM, the letter “B” designates an IC50 value between 50 nM and 100 nM, the letter “C” designates an IC50 value between 100 and 500 nM.

SMILES	GI50 [2] [nM]	% Inhibition BaF3 NPM-ALK L1196M cells [2] [%]	inhibition at 0.2 µM [1] [%]
CN1CCN(c2ccc(C(=O)Nc3n[nH]c4cc(-c5cccc(O)c5)c(Cc5cc(F)cc(F)c5)cc34)c(NC3CCOCC3)c2)CC1 [Example 4, N-[5-[(3,5-difluorophenyl)methyl]-6-(3-hydroxyphenyl)-1H-indazol-3-yl]-4-(4-methylpiperazin-1-yl)-2-(tetrahydropyran-4-ylamino)benzamide]	1 to 50	99	99
Cc1cc(O)ccc1-c1cc2[nH]nc(NC(=O)c3ccc(N4CCN(C)CC4)cc3NC3CCOCC3)c2cc1Cc1cc(F)cc(F)c1 [Example 5, N-[5-[(3,5-difluorophenyl)methyl]-6-(4-hydroxy-2-methyl-phenyl)-1H-indazol-3-yl]-4-(4-methylpiperazin-1-yl)-2-(tetrahydropyran-4-ylamino)benzamide]	1 to 50	100	100
CN1CCN(c2ccc(C(=O)Nc3n[nH]c4cc(-c5ccc(O)cc5F)c(Cc5cc(F)cc(F)c5)cc34)c(NC3CCOCC3)c2)CC1 [Example 6, N-[5-[(3,5-difluorophenyl)methyl]-6-(2-fluoro-4-hydroxy-phenyl)-1H-indazol-3-yl]-4-(4-methylpiperazin-1-yl)-2-(tetrahydropyran-4-ylamino)benzamide]	1 to 50	100	100
Cc1ccc(O)cc1-c1cc2[nH]nc(NC(=O)c3ccc(N4CCN(C)CC4)cc3NC3CCOCC3)c2cc1Cc1cc(F)cc(F)c1 [Example 7, N-[5-[(3,5-difluorophenyl)methyl]-6-(5-hydroxy-2-methyl-phenyl)-1H-indazol-3-yl]-4-(4-methylpiperazin-1-yl)-2-(tetrahydropyran-4-ylamino)benzamide]	1 to 50	100	93
CN1CCN(c2ccc(C(=O)Nc3n[nH]c4cc(-c5cc(O)ccc5F)c(Cc5cc(F)cc(F)c5)cc34)c(NC3CCOCC3)c2)CC1 [Example 8, N-[5-[(3,5-difluorophenyl)methyl]-6-(2-fluoro-5-hydroxy-phenyl)-1H-indazol-3-yl]-4-(4-methylpiperazin-1-yl)-2-(tetrahydropyran-4-ylamino)benzamide]	1 to 50	99	99
CN1CCN(c2ccc(C(=O)Nc3n[nH]c4cc(-c5ccc(O)cc5C(F)(F)F)c(Cc5cc(F)cc(F)c5)cc34)c(NC3CCOCC3)c2)CC1 [Example 9, N-[5-[(3,5-difluorophenyl)methyl]-6-[4-hydroxy-2-(trifluoromethyl)phenyl]-1H-indazol-3-yl]-4-(4-methylpiperazin-1-yl)-2-(tetrahydropyran-4-ylamino)benzamide]	1 to 50	99	100
CN1CCN(c2ccc(C(=O)Nc3n[nH]c4cc(-c5cnc(N)nc5)c(Cc5cc(F)cc(F)c5)cc34)c(NC3CCOCC3)c2)CC1 [Example 10, N-[6-(2-aminopyrimidin-5-yl)-5-[(3,5-difluorophenyl)methyl]-1H-indazol-3-yl]-4-(4-methylpiperazin-1-yl)-2-(tetrahydropyran-4-ylamino)benzamide]		61	93
CN1CCN(c2ccc(C(=O)Nc3n[nH]c4cc(-c5ccc(N)nc5)c(Cc5cc(F)cc(F)c5)cc34)c(NC3CCOCC3)c2)CC1 [Example 11, N-[6-(6-amino-3-pyridyl)-5-[(3,5-difluorophenyl)methyl]-1H-indazol-3-yl]-4-(4-methylpiperazin-1-yl)-2-(tetrahydropyran-4-ylamino)benzamide]	50 to 100	88	95
CN1CCN(c2ccc(C(=O)Nc3n[nH]c4cc(-c5cc[nH]c(=O)c5)c(Cc5cc(F)cc(F)c5)cc34)c(NC3CCOCC3)c2)CC1 [Example 16, N-[5-[(3,5-difluorophenyl)methyl]-6-(2-oxo-1H-pyridin-4-yl)-1H-indazol-3-yl]-4-(4-methylpiperazin-1-yl)-2-(tetrahydropyran-4-ylamino)benzamide]			88

Further lines, with some results ahead:

GI50 [2] [nM]	% Inhibition BaF3 NPM-ALK L1196M cells [2] [%]	SMILES	inhibition at 0.2 µM [1] [%]
50 to 100	99	CN1CCN(c2ccc(C(=O)Nc3n[nH]c4cc(-c5cncc(N)c5)c(Cc5cc(F)cc(F)c5)cc34)c(NC3CCOCC3)c2)CC1 [Example 12, N-[6-(5-amino-3-pyridyl)-5-[(3,5-difluorophenyl)methyl]-1H-indazol-3-yl]-4-(4-methylpiperazin-1-yl)-2-(tetrahydropyran-4-ylamino)benzamide]	100
100 to 500	97	CN1CCN(c2ccc(C(=O)Nc3n[nH]c4cc(-c5cccc(CO)c5)c(Cc5cc(F)cc(F)c5)cc34)c(NC3CCOCC3)c2)CC1 [Example 13, N-[5-[(3,5-difluorophenyl)methyl]-6-[3-(hydroxymethyl)phenyl]-1H-indazol-3-yl]-4-(4-methylpiperazin-1-yl)-2-(tetrahydropyran-4-ylamino)benzamide]	
	66	Cc1cc(N)ncc1-c1cc2[nH]nc(NC(=O)c3ccc(N4CCN(C)CC4)cc3NC3CCOCC3)c2cc1Cc1cc(F)cc(F)c1 [Example 14, N-[6-(6-amino-4-methyl-3-pyridyl)-5-[(3,5-difluorophenyl)methyl]-1H-indazol-3-yl]-4-(4-methylpiperazin-1-yl)-2-(tetrahydropyran-4-ylamino)benzamide]	62
50 to 100	100	CN1CCN(c2ccc(C(=O)Nc3n[nH]c4cc(-c5cnn(C(C)(C)CO)c5)c(Cc5cc(F)cc(F)c5)cc34)c(NC3CCOCC3)c2)CC1 [Example 15, N-[5-[(3,5-difluorophenyl)methyl]-6-[1-(2-hydroxy-1,1-dimethyl-ethyl)pyrazol-4-yl]-1H-indazol-3-yl]-4-(4-methylpiperazin-1-yl)-2-(tetrahydropyran-4-ylamino)benzamide]	100
100 to 500	97	CN1CCN(c2ccc(C(=O)Nc3n[nH]c4cc(-c5cn[nH]c5)c(Cc5cc(F)cc(F)c5)cc34)c(NC3CCOCC3)c2)CC1 [Example 18, N-[5-[(3,5-difluorophenyl)methyl]-6-(1H-pyrazol-4-yl)-1H-indazol-3-yl]-4-(4-methylpiperazin-1-yl)-2-(tetrahydropyran-4-ylamino)benzamide]	100
	57	CNC(=O)c1ccc(-c2cc3[nH]nc(NC(=O)c4ccc(N5CCN(C)CC5)cc4NC4CCOCC4)c3cc2Cc2cc(F)cc(F)c2)cc1 [Example 20, N-[5-[(3,5-difluorophenyl)methyl]-6-[4-(methylcarbamoyl)phenyl]-1H-indazol-3-yl]-4-(4-methylpiperazin-1-yl)-2-(tetrahydropyran-4-ylamino)benzamide]	
	52	COc1cccc(-c2cc3[nH]nc(NC(=O)c4ccc(N5CCN(C)CC5)cc4NC4CCOCC4)c3cc2Cc2cc(F)cc(F)c2)c1 [Example 24, N-[5-[(3,5-difluorophenyl)methyl]-6-(3-methoxyphenyl)-1H-indazol-3-yl]-4-(4-methylpiperazin-1-yl)-2-(tetrahydropyran-4-ylamino)benzamide]	
